How the values were obtained:
[1] = system: giant foxtail; assay: Test B pre/postemergence giant foxtail; assay type: in vivo, Setaria faberii
In short: (§1)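 Response is a visual 0-to-10 score relative to untreated plants, where 0 means no effect and 10 means complete control, taken twelve to sixteen days after application. Treatments went onto soil at planting and onto foliage of 1- to 4-leaf plants, using a surfactant-containing non-phytotoxic solvent.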

[2] = system: smallflower flatsedge; assay: Test B flood test smallflower flatsedge; assay type: in vivo, Cyperus difformis
In short: (§2)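 Flood test on plants grown to the 2-leaf stage; treated plants kept in greenhouse twelve to sixteen days, then visually rated against controls on a 0 (no effect) to 10 (complete control) scale.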

[3] = system: purple nutsedge; assay: Test B pre/postemergence purple nutsedge; assay type: in vivo, Cyperus rotundus
In short: as §1

[4] = system: surinam grass; assay: Test B pre/postemergence surinam grass; assay type: in vivo, Brachiaria decumbens
In short: as §1

[5] = system: morningglory; assay: Test B pre/postemergence morningglory; assay type: in vivo, Ipomoea hederacea
In short: as §1

[6] = system: soybean; assay: Test B pre/postemergence soybean; assay type: in vivo, Glycine max
In short: as §1

[7] = system: pigweed; assay: Test B pre/postemergence pigweed; assay type: in vivo, Amaranthus retroflexus
In short: as §1

[8] = system: duck salad; assay: Test B flood test duck salad; assay type: in vivo, Heteranthera limosa
In short: as §2

[9] = system: rape; assay: Test B pre/postemergence rape; assay type: in vivo, Brassica napus
In short: as §1

[10] = system: velvetleaf; assay: Test B pre/postemergence velvetleaf; assay type: in vivo, Abutilon theophrasti
In short: as §1

[11] = system: blackgrass; assay: Test B pre/postemergence blackgrass; assay type: in vivo, Alopecurus myosuroides
In short: as §1

[12] = system: bamyardgrass; assay: Test B flood test barnyardgrass; assay type: in vivo, Echinochloa crus-galli
In short: as §2

[13] = system: wheat; assay: Test B pre/postemergence wheat; assay type: in vivo, Triticum aestivum
In short: as §1

[14] = system: rice; assay: Test B flood test rice; assay type: in vivo, Oryza sativa
In short: as §2

[15] = system: crabgrass; assay: Test B pre/postemergence crabgrass; assay type: in vivo, Digitaria sanguinalis
In short: as §1

[16] = system: sugar beet; assay: Test B pre/postemergence sugar beet; assay type: in vivo, Beta vulgaris
In short: as §1

[17] = system: wild oat; assay: Test B pre/postemergence wild oat; assay type: in vivo, Avena fatua
In short: as §1

[18] = system: corn; assay: Test B pre/postemergence corn; assay type: in vivo, Zea mays
In short: as §1

[19] = system: cocklebur; assay: Test B pre/postemergence cocklebur; assay type: in vivo, Xanthium strumarium
In short: as §1

[20] = system: bedstraw; assay: Test B pre/postemergence bedstraw; assay type: in vivo, Galium aparine; settings: Preemergence; for Bedstraw plant response rating: scale 0 to 10, 0 is no effect, 10 is complete control
In short: as §1

[21] = Postemergence, Rate 62 g/ha, scale of 0 to 10, 0 is no effect, 10 is complete control
[22] = Postemergence, Rate 125 g/ha, scale 0 to 10, 0 is no effect, 10 is complete control
[23] = Postemergence, Rate 500 g/ha, scale 0 to 10, 0 is no effect, 10 is complete control
[24] = Preemergence, Rate 62 g/ha, scale of 0 to 10 where 0 is no effect and 10 is complete control
[25] = Preemergence, Rate 125 g/ha, scale 0 to 10, 0 is no effect, 10 is complete control
[26] = Preemergence, Rate 500 g/ha, scale of 0 to 10 where 0 is no effect and 10 is complete control
[27] = Rate 62 g/ha, flood test species, Pre-emergence, visual evaluation after twelve to sixteen days
[28] = Rate 125 g/ha, under heading Pre-emergence, flood test species, visual evaluation after twelve to sixteen days
[29] = Rate 250 g/ha, Pre-emergence (flood test species), scale 0 to 10, 0 is no effect, 10 is complete control
[30] = Rate 500 g/ha, Pre-emergence section of Table B, 0 to 10 scale (0 no effect, 10 complete control)
[31] = Preemergence, Rate 250 g/ha, scale 0 to 10, 0 is no effect, 10 is complete control
[32] = Postemergence, Rate 250 g/ha, scale 0 to 10

CC(C)N(C(=O)n1oc(=O)n(CC2CC2)c1=O)c1ccc(F)cc1F [Compound 509]
Giant foxtail plant response rating [1, 21]: 3 | Giant foxtail plant response rating [1, 22]: 7 | Plant response rating, Giant foxtail [1, 23]: 8 | Plant response rating, Giant foxtail [1, 24]: 9 | Giant foxtail plant response rating [1, 25]: 9 | Giant foxtail plant response rating [1, 26]: 10 | Plant response rating, S. Flatsedge (0 to 10 scale, 0 is no effect, 10 is complete control) [2, 27]: 0 | S. Flatsedge plant response rating (0 to 10 scale, 0 is no effect, 10 is complete control) [2, 28]: 0 | S. Flatsedge plant response rating [2, 29]: 0 | S. Flatsedge plant response rating [2, 30]: 0 | Nutsedge plant response rating [3, 21]: 0 | Nutsedge plant response rating [3, 22]: 0 | Plant response rating, Nutsedge [3, 24]: 0 | Nutsedge plant response rating [3, 25]: 0 | Nutsedge plant response rating [3, 26]: 0 | B. signalgrass plant response rating [4, 21]: 0 | B. signalgrass plant response rating [4, 22]: 0 | B. signalgrass plant response rating ([4]; Postemergence, Rate 250 g/ha, scale 0 to 10, 0 no effect, 10 complete control): 2 | Plant response rating, B. signalgrass [4, 23]: 7 | Plant response rating, B. signalgrass [4, 24]: 2 | B. signalgrass plant response rating [4, 25]: 3 | B. signalgrass plant response rating [4, 31]: 8 | B. signalgrass plant response rating ([4]; Preemergence, Rate 500 g/ha, scale 0 to 10, 0 is no effect, 10 is complete control): 9 | Plant response rating, Morningglory [5, 23]: 5 | Plant response rating, Morningglory [5, 24]: 0 | Morningglory plant response rating [5, 25]: 0 | Morningglory plant response rating [5, 26]: 3 | Soybean plant response rating [6, 21]: 1 | Soybean plant response rating [6, 22]: 3 | Plant response rating, Soybean [6, 23]: 5 | Plant response rating, Soybean [6, 24]: 0 | Soybean plant response rating [6, 25]: 0 | Redroot pigweed plant response rating [7, 21]: 0 | Redroot pigweed plant response rating [7, 22]: 0 | Plant response rating, Redroot pigweed [7, 23]: 5 | Plant response rating, Redroot pigweed [7, 24]: 0 | Redroot pigweed plant response rating [7, 25]: 0 | Redroot pigweed plant response rating [7, 26]: 10 | Plant response rating, Ducksalad (0 to 10 scale, 0 is no effect, 10 is complete control) [8, 27]: 0 | Ducksalad plant response rating (0 to 10 scale, 0 is no effect, 10 is complete control) [8, 28]: 0 | Ducksalad plant response rating [8, 29]: 0 | Ducksalad plant response rating [8, 30]: 0 | Rape plant response rating [9, 21]: 0 | Rape plant response rating [9, 22]: 0 | Plant response rating, Rape [9, 23]: 4 | Plant response rating, Rape [9, 24]: 0 | Rape plant response rating [9, 25]: 0 | Rape plant response rating [9, 26]: 10 | Velvetleaf plant response rating [10, 21]: 2 | Velvetleaf plant response rating [10, 22]: 4 | Plant response rating, Velvetleaf [10, 23]: 7 | Plant response rating, Velvetleaf [10, 24]: 3 | Velvetleaf plant response rating [10, 25]: 6 | Velvetleaf plant response rating [10, 26]: 8 | Blackgrass plant response rating [11, 21]: 2 | Blackgrass plant response rating [11, 22]: 5 | Blackgrass plant response rating [11, 32]: 6 | Plant response rating, Blackgrass [11, 23]: 9 | Plant response rating, Blackgrass [11, 24]: 5 | Blackgrass plant response rating [11, 25]: 7 | Blackgrass plant response rating [11, 31]: 8 | Blackgrass plant response rating [11, 26]: 10 | Plant response rating, Barnyardgrass (0 to 10 scale, 0 is no effect, 10 is complete control) [12, 27]: 0 | Barnyardgrass plant response rating (0 to 10 scale, 0 is no effect, 10 is complete control) [12, 28]: 0 | Barnyardgrass plant response rating [12, 29]: 0 | Barnyardgrass plant response rating [12, 30]: 0 | Wheat plant response rating [13, 21]: 0 | Wheat plant response rating [13, 22]: 0 | Plant response rating, Wheat [13, 23]: 2 | Plant response rating, Wheat [13, 24]: 0 | Wheat plant response rating [13, 25]: 0 | Wheat plant response rating [13, 26]: 7 | Plant response rating, Rice (0 to 10 scale, 0 is no effect, 10 is complete control) [14, 27]: 0 | Rice plant response rating (0 to 10 scale, 0 is no effect, 10 is complete control) [14, 28]: 0 | Rice plant response rating [14, 29]: 0 | Rice plant response rating [14, 30]: 0 | Crabgrass plant response rating [15, 21]: 3 | Crabgrass plant response rating [15, 22]: 9 | Crabgrass plant response rating [15, 32]: 9 | Plant response rating, Crabgrass [15, 23]: 9 | Plant response rating, Crabgrass [15, 24]: 3 | Crabgrass plant response rating [15, 25]: 7 | Crabgrass plant response rating [15, 26]: 10 | Sugarbeets plant response rating [16, 21]: 0 | Sugarbeets plant response rating [16, 22]: 0 | Plant response rating, Sugarbeets [16, 23]: 7 | Plant response rating, Sugarbeets [16, 24]: 0 | Sugarbeets plant response rating [16, 25]: 4 | Sugarbeets plant response rating [16, 26]: 7 | Wild oats plant response rating [17, 21]: 0 | Wild oats plant response rating [17, 22]: 0 | Plant response rating, Wild oats [17, 23]: 8 | Plant response rating, Wild oats [17, 24]: 0 | Wild oats plant response rating [17, 25]: 2 | Wild oats plant response rating [17, 26]: 9 | Corn plant response rating [18, 21]: 0 | Corn plant response rating [18, 22]: 0 | Corn plant response rating [18, 32]: 0 | Plant response rating, Corn [18, 23]: 1 | Plant response rating, Corn [18, 24]: 0 | Corn plant response rating [18, 25]: 0 | Corn plant response rating [18, 26]: 6 | Cocklebur plant response rating [19, 21]: 0 | Cocklebur plant response rating [19, 22]: 0 | Cocklebur plant response rating [19, 32]: 0 | Plant response rating, Cocklebur [19, 23]: 4 | Plant response rating, Cocklebur [19, 24]: 0 | Cocklebur plant response rating [19, 25]: 0 | Cocklebur plant response rating [19, 31]: 0 | Cocklebur plant response rating [19, 26]: 5 | Plant response rating, Bedstraw ([20]; Rate 62 g/ha, scale of 0 to 10 where 0 is no effect and 10 is complete control): 0 | Bedstraw plant response rating ([20]; Rate 125 g/ha): 0 | Bedstraw plant response rating ([20]; Rate 250 g/ha): 10 | Bedstraw plant response rating ([20]; Rate 500 g/ha): 9

— patent publication US6737383B1, “Herbicidal oxadiazolidines” (priority 1999, dated 2004)
